Results: article PMC7897990, “TriTOX: A novel Trichomonas vaginalis assay platform for high-throughput screening of compound libraries” (International Journal for Parasitology: Drugs and Drug …, 2021)
Read-outs that look alike come from different tables or passages of the source.

Tested on: Trichomonas vaginalis G3 trophozoites
Conditions: for T.vaginalis_Absorbance_Rep1: replicate 1, raw absorbance; for T.vaginalis_Absorbance_Rep2: replicate 2, raw absorbance
[1] = HTS, parasite screen at 1 µg/mL, replicate 1
[2] = HTS, parasite screen at 1 µg/mL
[3] = HTS, parasite screen at 1 µg/mL, replicate 2
[4] = HTS replicate 1, parasite screen 1 µg/mL
[5] = HTS replicate 2, parasite screen 1 µg/mL

Question: Which results are given for `COc1cc2c(oc(=O)c3cc(C)cc(OC)c32)c2c(C3OC(C(C)O)C(O)C3O)ccc(O)c12` (stereo not shown) [Gilvocarcin M]?
Answer: T.vaginalis_%inb_Rep1 [1]: 10.14%; T.vaginalis_Absorbance_Rep1 [2]: 0.902; T.vaginalis_%inb_Rep2 [3]: 13.92%; T.vaginalis_Absorbance_Rep2 [2]: 0.852

Question: With Milbemycin oxime as the molecule, how does the T.vaginalis_%inb_Rep1 [4] read?
Answer: 12.53%

Question: And the T.vaginalis_%inb_Rep2 [5]?
Answer: 12.96%

Question: `CC1=CCCC(C)C(O)C(C)C(O)CCC=CC(C)C(O)C=CC(C)C(O)C(C)=CC(O[C@H]2O[C@H](CO)[C@@H](O)[C@H](O)[C@@H]2O)C(O)CC(O)CC(O)CC(O)C(C)C(O)C(C)C(O)CC(O)CC(O)C=CCC(C(C)C(O)CCCN)OC1=O` (stereo partly shown) [Desertomycin A] was tested. Which T.vaginalis_%inb_Rep1 [1] did it give?
Answer: 12.39%

Question: And the T.vaginalis_Absorbance_Rep1 [2]?
Answer: 0.939

Question: And the T.vaginalis_%inb_Rep2 [3]?
Answer: 12.87%

Question: And the T.vaginalis_Absorbance_Rep2 [2]?
Answer: 0.798

Question: Which T.vaginalis_%inb_Rep1 [1] does the source give for `CCCCCCC(C)C/C(C)=C\C(/C=C(C)/C=C/C(O)C(C)(C)c1cc(O)c([C@@H]2O[C@H](CO)C[C@H](O)[C@H]2O)c(=O)o1)CO` (stereo partly shown) [Fusapyrone] here?
Answer: 13.39%

Question: And the T.vaginalis_Absorbance_Rep1 [2]?
Answer: 0.966

Question: What about the T.vaginalis_%inb_Rep2 [3] of the same molecule?
Answer: 13.21%

Question: And the T.vaginalis_Absorbance_Rep2 [2]?
Answer: 0.841

Question: What does the source list for `O=c1c2cccn2c(=O)c2cccn12` [Pyrocoll]?
Answer: T.vaginalis_%inb_Rep1 [4]: 15.47%; T.vaginalis_%inb_Rep2 [5]: 11.29%

Question: How did the T.vaginalis_%inb_Rep1 [1] turn out when `COC1=C(O)c2c(O)cc(C)c3c(O)cc(O)c(c23)C1=O` [Funalenone] was run?
Answer: 14.50%

Question: And the T.vaginalis_Absorbance_Rep1 [2]?
Answer: 0.988

Question: And the T.vaginalis_%inb_Rep2 [3]?
Answer: 12.96%

Question: And the T.vaginalis_Absorbance_Rep2 [2]?
Answer: 0.837

Question: `CC[C@]1(C)C[C@@H](OC(=O)CO)[C@]2(C)[C@H](C)CC[C@]3(CCC(=O)[C@H]32)[C@@H](C)[C@@H]1O` [Dihydropleuromutilin] was tested. Which T.vaginalis_%inb_Rep1 [1] did it give?
Answer: 14.27%

Question: What about the T.vaginalis_Absorbance_Rep1 [2] of the same molecule?
Answer: 0.974

Question: What about the T.vaginalis_%inb_Rep2 [3] of the same molecule?
Answer: 13.23%

Question: And the T.vaginalis_Absorbance_Rep2 [2]?
Answer: 0.803

Question: `COC(=O)C1(O)CC2OC1(C)n1c3ccccc3c3c4c(c5c6ccccc6n2c5c31)C(=O)NC4` (stereo not shown) [K252A, reference compound] was tested. Which “T. vaginalis HTS result in words” value (384-well, 25 μL, 10,000 cells/mL, 48 h, biological duplicates, hit = >50% inhibition) did it give?
Answer: active analogues

Question: Which T.vaginalis_%inb_Rep1 [1] does the source give for `CCC/C=C/C=C/C1C[C@@H](O)[C@@H](O)C(=O)[C@H]1C=O` (stereo partly shown) [Frequentin] here?
Answer: 13.62%

Question: And the T.vaginalis_Absorbance_Rep1 [2]?
Answer: 0.962

Question: What about the T.vaginalis_%inb_Rep2 [3] of the same molecule?
Answer: 7.74%

Question: What about the T.vaginalis_Absorbance_Rep2 [2] of the same molecule?
Answer: 0.727

Question: `CCCCCC(=O)C(CCCC)c1oc(=O)c(CCCC)c(O)c1CCCC` (stereo not shown) [Elasnin] was tested. Which T.vaginalis_%inb_Rep1 [1] did it give?
Answer: 13.95%

Question: And the T.vaginalis_Absorbance_Rep1 [2]?
Answer: 0.968

Question: What about the T.vaginalis_%inb_Rep2 [3] of the same molecule?
Answer: 11.14%

Question: What about the T.vaginalis_Absorbance_Rep2 [2] of the same molecule?
Answer: 0.774

Question: Which T.vaginalis_%inb_Rep1 [4] does the source give for `COCC(=O)N[C@@H](C(=O)N1NCCC[C@H]1C(=O)N[C@@H](Cc1ccccc1)[C@@H](O)[C@H](C)C(=O)N[C@H]1CCN(C(N)=O)C1=O)[C@H](O)C(C)C` [Padanamide A] here?
Answer: 15.72%

Question: What about the T.vaginalis_%inb_Rep2 [5] of the same molecule?
Answer: 10.52%

Question: How did the T.vaginalis_%inb_Rep1 [1] turn out when `CC1=CC[C@H]2C(C)(C)CCC[C@]2(C)[C@H]1CO` [Drimenol] was run?
Answer: 14.49%

Question: And the T.vaginalis_Absorbance_Rep1 [2]?
Answer: 0.978

Question: And the T.vaginalis_%inb_Rep2 [3]?
Answer: 11.14%

Question: What about the T.vaginalis_Absorbance_Rep2 [2] of the same molecule?
Answer: 0.774

Question: How did the T.vaginalis_%inb_Rep1 turn out when `CC1=C[C@H]2O[C@@H]3[C@H](O)[C@@H](O)[C@](C)([C@@]2(CO)[C@H](O)C1=O)[C@]31CO1` [Nivalenol] was run?
Answer: 9.96%

Question: What about the T.vaginalis_%inb_Rep2 of the same molecule?
Answer: 14.26%

Question: What does the source list for `CC(=O)c1c(O)c(C(C)=O)c(O)c(C(C)=O)c1O` [Triacetylphloroglucinol]?
Answer: T.vaginalis_%inb_Rep1 [1]: 10.38%; T.vaginalis_%inb_Rep2 [3]: 10.12%

Question: Which T.vaginalis_%inb_Rep1 [1] does the source give for `CCC1NC(=O)C(NC(=O)c2ncccc2O)C(C)OC(=O)C(c2ccccc2)NC(=O)C2CC(=O)CCN2C(=O)C(Cc2ccccc2)N(C)C(=O)C2CCCN2C1=O` (stereo not shown) [Virginiamycin S1] here?
Answer: 9.96%

Question: And the T.vaginalis_%inb_Rep2 [3]?
Answer: 3.72%

Question: With `Cn1c(=O)c(=Cc2ccccc2)[nH]c(=O)c1=Cc1ccccc1` [Piperafizine A] as the molecule, how does the T.vaginalis_%inb_Rep1 [4] read?
Answer: 11.87%

Question: And the T.vaginalis_%inb_Rep2 [5]?
Answer: 11.10%

Question: `CN(C)C1C(=O)C(C(N)=O)=C(O)C2(O)C(=O)C3=C(O)c4c(O)ccc(Cl)c4C(C)(O)C3CC12.Cl` (stereo not shown) [Epichlortetracycline hydrochloride] was tested. Which T.vaginalis_%inb_Rep1 [1] did it give?
Answer: 7.49%

Question: And the T.vaginalis_Absorbance_Rep1 [2]?
Answer: 0.848

Question: And the T.vaginalis_%inb_Rep2 [3]?
Answer: 3.76%

Question: And the T.vaginalis_Absorbance_Rep2 [2]?
Answer: 0.672

Question: What does the source list for `COC1=C(OC)C(=O)C(C)=CC1=O` [Fumigatin methylether]?
Answer: T.vaginalis_%inb_Rep1 [1]: 13.18%; T.vaginalis_Absorbance_Rep1 [2]: 0.962; T.vaginalis_%inb_Rep2 [3]: 9.62%; T.vaginalis_Absorbance_Rep2 [2]: 0.785
